system: Staphylococcus aureus; test: Antimicrobial activity against methicillin-sensitive Staphylococcus aureus […] assessed as inhibition of microbial growth incubated for 14 days in biotin-deficient GAST medium by broth microdilution assay; assay type: functional; settings: 336 h, time 14 day

Question: Which MIC50 does the source give for `Nc1ncnc2c1ncn2[C@@H]1O[C@H](CNS(=O)(=O)NC(=O)NCCCCC[C@@H]2SC[C@@H]3NC(=O)N[C@@H]32)[C@@H](O)[C@H]1O` here?
Answer: 25.7 µM

Question: With `CN(C(=O)CCCC[C@@H]1SC[C@@H]2NC(=O)N[C@@H]21)S(=O)(=O)NC[C@H]1O[C@@H](n2cnc3c(N)ncnc32)[C@H](O)[C@@H]1O` as the compound, how does the MIC50 read?
Answer: > 30 µM

Question: For `Nc1ncnc2c1ncn2[C@@H]1O[C@H](Cn2cc(C(=O)CCCC[C@@H]3SC[C@@H]4NC(=O)N[C@@H]43)nn2)[C@@H](O)[C@H]1O`, which MIC50 is on record?
Answer: 29.4 µM

Question: How did the MIC50 turn out when `Nc1ncnc2c1ncn2[C@@H]1O[C@H](Cn2cc(CCCCC[C@@H]3SC[C@@H]4NC(=O)N[C@@H]43)nn2)[C@@H](O)[C@H]1O` was run?
Answer: 30 µM

target: T1, Biotin--[acetyl-CoA-carboxylase] ligase (Mycobacterium tuberculosis (strain ATCC 25618 / H37Rv), UniProt I6YFP0); test: Binding affinity to Mycobacterium tuberculosis BPL assessed as dissociation constant by isothermal titration calorimetry; settings: not given
T1 sequence (I6YFP0 whole entry): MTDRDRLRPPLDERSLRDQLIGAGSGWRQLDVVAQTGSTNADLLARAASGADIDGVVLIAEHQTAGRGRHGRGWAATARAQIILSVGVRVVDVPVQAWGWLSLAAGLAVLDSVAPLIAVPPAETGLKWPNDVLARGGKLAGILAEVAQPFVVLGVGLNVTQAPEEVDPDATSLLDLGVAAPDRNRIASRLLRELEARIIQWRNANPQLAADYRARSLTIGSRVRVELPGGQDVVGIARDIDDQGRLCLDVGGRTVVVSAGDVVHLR

Question: `Nc1ncnc2c1ncn2[C@@H]1O[C@H](CNS(=O)(=O)NC(=O)NCCCCC[C@@H]2SC[C@@H]3NC(=O)N[C@@H]32)[C@@H](O)[C@H]1O` was tested. Which Kd did it give?
Answer: 110 nM

Question: For `CN(C(=O)CCCC[C@@H]1SC[C@@H]2NC(=O)N[C@@H]21)S(=O)(=O)NC[C@H]1O[C@@H](n2cnc3c(N)ncnc32)[C@H](O)[C@@H]1O`, which Kd is on record?
Answer: 120 nM

Question: `Nc1ncnc2c1ncn2[C@@H]1O[C@H](Cn2cc(CCCCC[C@@H]3SC[C@@H]4NC(=O)N[C@@H]43)nn2)[C@@H](O)[C@H]1O` was tested. Which Kd did it give?
Answer: 62 nM

system: Staphylococcus aureus; test: Antimicrobial activity against methicillin-resistant Staphylococcus aureus FPR3757 assessed as inhibition of microbial growth incubated for 14 days in biotin-deficient GAST medium by broth microdilution assay; assay type: functional; settings: FPR3757, 336 h, time 14 day

Question: `Nc1ncnc2c1ncn2[C@@H]1O[C@H](CNS(=O)(=O)NC(=O)NCCCCC[C@@H]2SC[C@@H]3NC(=O)N[C@@H]32)[C@@H](O)[C@H]1O` was tested. Which MIC50 did it give?
Answer: 12.8 µM

Question: `CN(C(=O)CCCC[C@@H]1SC[C@@H]2NC(=O)N[C@@H]21)S(=O)(=O)NC[C@H]1O[C@@H](n2cnc3c(N)ncnc32)[C@H](O)[C@@H]1O` was tested. Which MIC50 did it give?
Answer: > 30 µM

Question: `Nc1ncnc2c1ncn2[C@@H]1O[C@H](Cn2cc(C(=O)CCCC[C@@H]3SC[C@@H]4NC(=O)N[C@@H]43)nn2)[C@@H](O)[C@H]1O` was tested. Which MIC50 did it give?
Answer: 29.4 µM

Question: `Nc1ncnc2c1ncn2[C@@H]1O[C@H](Cn2cc(CCCCC[C@@H]3SC[C@@H]4NC(=O)N[C@@H]43)nn2)[C@@H](O)[C@H]1O` was tested. Which MIC50 did it give?
Answer: 15 µM

target: T2, Biotin--[acetyl-CoA-carboxylase] ligase (Mycobacterium tuberculosis (strain ATCC 25618 / H37Rv)) (UniProt I6YFP0); test: Binding affinity to Mycobacterium tuberculosis BPL assessed as change in entropy by isothermal titration calorimetry; settings: not given
T2 sequence (whole entry): T1 sequence (I6YFP0 whole entry)

Question: Which TdeltaS does the source give for `Nc1ncnc2c1ncn2[C@@H]1O[C@H](CNS(=O)(=O)NC(=O)NCCCCC[C@@H]2SC[C@@H]3NC(=O)N[C@@H]32)[C@@H](O)[C@H]1O` here?
Answer: 0.48 kcal/mol

Question: Which TdeltaS does the source give for `CN(C(=O)CCCC[C@@H]1SC[C@@H]2NC(=O)N[C@@H]21)S(=O)(=O)NC[C@H]1O[C@@H](n2cnc3c(N)ncnc32)[C@H](O)[C@@H]1O` here?
Answer: 0.14 kcal/mol

Question: Which TdeltaS does the source give for `Nc1ncnc2c1ncn2[C@@H]1O[C@H](Cn2cc(CCCCC[C@@H]3SC[C@@H]4NC(=O)N[C@@H]43)nn2)[C@@H](O)[C@H]1O` here?
Answer: 4.3 kcal/mol

target: T2, Biotin--[acetyl-CoA-carboxylase] ligase (Mycobacterium tuberculosis (strain ATCC 25618 / H37Rv)); test: Binding affinity to Mycobacterium tuberculosis BPL assessed as change in gibbs free energy by isothermal titration calorimetry; settings: not given

Question: How did the deltaG turn out when `Nc1ncnc2c1ncn2[C@@H]1O[C@H](CNS(=O)(=O)NC(=O)NCCCCC[C@@H]2SC[C@@H]3NC(=O)N[C@@H]32)[C@@H](O)[C@H]1O` was run?
Answer: -9.4 kcal/mol

Question: `CN(C(=O)CCCC[C@@H]1SC[C@@H]2NC(=O)N[C@@H]21)S(=O)(=O)NC[C@H]1O[C@@H](n2cnc3c(N)ncnc32)[C@H](O)[C@@H]1O` was tested. Which deltaG did it give?
Answer: -9.7 kcal/mol

Question: Which deltaG does the source give for `Nc1ncnc2c1ncn2[C@@H]1O[C@H](Cn2cc(CCCCC[C@@H]3SC[C@@H]4NC(=O)N[C@@H]43)nn2)[C@@H](O)[C@H]1O` here?
Answer: -9.9 kcal/mol

system: Mycobacterium tuberculosis; test: Antimicrobial activity against wild type Mycobacterium tuberculosis H37Rv assessed as inhibition of microbial growth incubated for 14 days in biotin-deficient GAST medium by broth microdilution assay; assay type: functional; settings: 336 h, time 14 day

Question: Which MIC50 does the source give for `Nc1ncnc2c1ncn2[C@@H]1O[C@H](CNS(=O)(=O)NC(=O)NCCCCC[C@@H]2SC[C@@H]3NC(=O)N[C@@H]32)[C@@H](O)[C@H]1O` here?
Answer: > 100 µM

Question: Which MIC50 does the source give for `CN(C(=O)CCCC[C@@H]1SC[C@@H]2NC(=O)N[C@@H]21)S(=O)(=O)NC[C@H]1O[C@@H](n2cnc3c(N)ncnc32)[C@H](O)[C@@H]1O` here?
Answer: > 100 µM

Question: `Nc1ncnc2c1ncn2[C@@H]1O[C@H](Cn2cc(C(=O)CCCC[C@@H]3SC[C@@H]4NC(=O)N[C@@H]43)nn2)[C@@H](O)[C@H]1O` was tested. Which MIC50 did it give?
Answer: > 100 µM

Question: Which MIC50 does the source give for `Nc1ncnc2c1ncn2[C@@H]1O[C@H](Cn2cc(CCCCC[C@@H]3SC[C@@H]4NC(=O)N[C@@H]43)nn2)[C@@H](O)[C@H]1O` here?
Answer: > 100 µM

target: T2, Biotin--[acetyl-CoA-carboxylase] ligase (Mycobacterium tuberculosis (strain ATCC 25618 / H37Rv)); test: Binding affinity to Mycobacterium tuberculosis BPL assessed as change in enthalpy by isothermal titration calorimetry; settings: not given

Question: For `Nc1ncnc2c1ncn2[C@@H]1O[C@H](CNS(=O)(=O)NC(=O)NCCCCC[C@@H]2SC[C@@H]3NC(=O)N[C@@H]32)[C@@H](O)[C@H]1O`, which deltaH is on record?
Answer: -9.9 kcal/mol

Question: With `CN(C(=O)CCCC[C@@H]1SC[C@@H]2NC(=O)N[C@@H]21)S(=O)(=O)NC[C@H]1O[C@@H](n2cnc3c(N)ncnc32)[C@H](O)[C@@H]1O` as the compound, how does the deltaH read?
Answer: -9.6 kcal/mol

Question: With `Nc1ncnc2c1ncn2[C@@H]1O[C@H](Cn2cc(CCCCC[C@@H]3SC[C@@H]4NC(=O)N[C@@H]43)nn2)[C@@H](O)[C@H]1O` as the compound, how does the deltaH read?
Answer: -14.2 kcal/mol

— ChEMBL document CHEMBL6153072, “Metabolically Stable Adenylation Inhibitors of Biotin Protein Ligase as Antibacterial Agents” (J Med Chem, 2025)
